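Five concentrations, 48 hours, 96-well plates. GI50 = concentration required for 50% inhibition of growth.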 The source made the active and inactive calls. No stated cut-off is given here; in the data, active = GI50 up to about 1.1 µM and inactive = higher.

Here are results for ten molecules from ChEMBL document CHEMBL1201862, “PubChem BioAssay data set” (2004).

Assay in all cases: NCI tumour cell line growth inhibition, 48 h
The subject of test [1] is SF-539.
Test [2] relates to SF-268.
The test system of test [3] is MOLT-4.
The subject of test [4] is CAKI-1.
Test [5] deals with OVCAR-3.
The test system of test [6] is OVCAR-5.
In test [7] the test system is SNB-75.
Test [8] has as its system SNB-19.
The test system of test [9] is HT-29.
Test [10] relates to NCI-H460.
Test [11] deals with T47D.
In test [12] the test system is 786-0.
Test [13] relates to UACC-62.
The subject of test [14] is HCC 2998.
Test [15] relates to MCF7.
The test system of test [16] is M14.
The test system of test [17] is HOP-92.
Test [18] concerns UO-31.
Test [19] deals with K562.
In test [20] the test system is IGROV-1.

Regarding `CC1C2(C)OCC(C#N)(C(=N)O2)C1(C#N)C#N` (stereo not given), the GI50 in [1] was 23.1 µM (inactive); in test [2], 22.8 µM (inactive); in test [3] it was 27.3 µM (inactive); in test [4] it was 12.5 µM (inactive); in test [5], 15.1 µM (inactive); in test [6] it was 29.1 µM (inactive). For the same molecule, the GI50 in test [7] is 96.8 µM (inactive); in [8], 43.5 µM (inactive); in [9], 15.8 µM (inactive); in test [10] it was 18.5 µM (inactive); in test [11], 12.6 µM (inactive); in test [12] it was 21.3 µM (inactive). The GI50 was 24.9 µM (inactive) in [13]; > 10 µM (inactive) in [14]; 20.7 µM (inactive) in test [15]; 16.1 µM (inactive) in test [16]; 21.9 µM (inactive) in test [17]; 36.2 µM (inactive) in test [18]. The GI50 was 32.8 µM (inactive) in [19] and 33 µM (inactive) in test [20].
As to `C=CCC1(Sc2ccccn2)Sc2ccc3ccccc3c2-c2c(ccc3ccccc23)S1`, the GI50 in [1], in test [2], in [3], in test [4], in test [5] and in test [6] was > 100 µM (inactive) each time. The GI50 in [7] is 55.7 µM (inactive); in test [8], > 100 µM (inactive); in [9] it was > 100 µM (inactive); in test [10], > 100 µM (inactive); in test [11] it was > 100 µM (inactive); in [12], > 100 µM (inactive). For the same molecule, the GI50 in test [13], in test [14], in test [15], in test [16], in [17] and in [18] was > 100 µM (inactive) in each case. In addition, the GI50 in test [19] and in test [20] was > 100 µM (inactive) in each case.
Regarding `Cc1cn(C2CC(O)C(Cn3cc(Cn4ncc(=O)[nH]c4=O)nn3)O2)c(=O)[nH]c1=O` (stereo not given), the GI50 in [1], in test [2], in test [3], in test [4], in test [5] and in test [6] was > 100 µM (inactive) in each case. The GI50 in test [7], in test [8], in [9], in test [11], in test [12] and in test [13] was > 100 µM (inactive) in each case. Besides, the GI50 in [14], in test [15], in [16], in test [17], in test [18] and in [20] was > 100 µM (inactive) in each case.
For the molecule `O=C(NCCCNCCNC(=O)c1cc(-c2ccccc2)nc2ccccc12)c1cc(-c2ccccc2)nc2ccccc12`, the GI50 in test [1] was 1.82 µM (inactive); in test [2], 2.1 µM (inactive); in test [3], 2.09 µM (inactive); in test [4] it was 2.26 µM (inactive); in [5], 1.97 µM (inactive); in [7], 1.51 µM (inactive). Moreover, the GI50 in test [8] is 1.87 µM (inactive); in test [9] it was 1.52 µM (inactive); in [10] it was 1.83 µM (inactive); in test [11] it was 1.91 µM (inactive); in test [12], 1.79 µM (inactive); in test [13] it was 2.22 µM (inactive). Also, the GI50 in test [14] was 1.7 µM (inactive); in [15] it was 1.68 µM (inactive); in test [16] it was 2.24 µM (inactive); in test [17], 2.12 µM (inactive); in [18], 1.86 µM (inactive); in test [19], 1.94 µM (inactive). The GI50 in test [20] was 1.95 µM (inactive).
`CCc1nc(N)nc(N)c1-c1ccc2nnn(O)c2c1`: the GI50 in test [1], in test [2], in test [3], in test [4], in [5] and in test [6] was > 100 µM (inactive) in each case. Further, the GI50 in test [7] is > 100 µM (inactive); in test [8] it was > 100 µM (inactive); in test [9], > 89.1 µM (inactive); in test [10], > 72.8 µM (inactive); in test [11], > 100 µM (inactive); in test [12], > 100 µM (inactive). Besides, the GI50 in test [13], in test [14], in [15], in [16], in [17] and in [18] was > 100 µM (inactive) in each case. The GI50 is 76.2 µM (inactive) in test [19] and > 100 µM (inactive) in test [20].
As for `NC1=CN(Cc2ccccc2)C2=N/C(=C\c3ccccc3)C(=O)N12`, the GI50 in test [1] was > 100 µM (inactive); in test [2] it was > 100 µM (inactive); in [3] it was 97.3 µM (inactive); in test [4], > 100 µM (inactive); in test [5] it was > 100 µM (inactive); in test [6], > 100 µM (inactive). Further, the GI50 in test [7], in test [8], in [9], in test [10], in test [11] and in test [12] was > 100 µM (inactive) each time. Besides, the GI50 in test [13] was > 100 µM (inactive); in test [14], > 100 µM (inactive); in test [15] it was > 100 µM (inactive); in test [16], > 100 µM (inactive); in test [17], > 100 µM (inactive); in test [18], 65.9 µM (inactive). The GI50 in test [19] is 48.8 µM (inactive); in test [20], > 100 µM (inactive).
With `N#CC(c1ccccc1)N(CCc1ccccc1)C(=O)c1ccccc1` (stereo not given), the GI50 in test [1] was 31.3 µM (inactive); in test [2], 30.2 µM (inactive); in test [3] it was > 100 µM (inactive); in test [4], > 100 µM (inactive); in test [5], > 100 µM (inactive); in test [6], > 100 µM (inactive). Moreover, the GI50 in test [7] is 12.7 µM (inactive); in test [8], 26.2 µM (inactive); in test [9], > 100 µM (inactive); in [10] it was > 100 µM (inactive); in test [11] it was > 100 µM (inactive); in test [12], 27.7 µM (inactive). Moreover, the GI50 was 51.2 µM (inactive) in [13]; > 100 µM (inactive) in test [14]; > 100 µM (inactive) in test [15]; > 100 µM (inactive) in test [16]; 20 µM (inactive) in test [17]; > 74.6 µM (inactive) in [18]. Moreover, the GI50 was > 100 µM (inactive) in test [19] and > 74 µM (inactive) in [20].
`COC(=O)c1ccccc1C1CN=NC12Cc1cccc(C)c1C2=O` (stereo not given): the GI50 was > 100 µM (inactive) in test [1]; 61.4 µM (inactive) in test [2]; 32.8 µM (inactive) in [3]; 46.1 µM (inactive) in test [4]; 22.1 µM (inactive) in test [5]; > 100 µM (inactive) in [6]. The GI50 in test [7] is 33.3 µM (inactive); in test [8] it was 70 µM (inactive); in test [9], 57.7 µM (inactive); in test [10] it was 88.1 µM (inactive); in test [11] it was 16.6 µM (inactive); in test [12] it was 90.4 µM (inactive). Also, the GI50 in test [13] was 34.7 µM (inactive); in [14] it was > 100 µM (inactive); in [15], 43 µM (inactive); in [17], 25.5 µM (inactive); in [18] it was 20.8 µM (inactive); in test [19], 53.1 µM (inactive). The GI50 in test [20] was 59.8 µM (inactive).
Take `O=C1/C(=C/c2ccc([N+](=O)[O-])cc2)CNC/C1=C\c1ccc([N+](=O)[O-])cc1`: the GI50 in test [1] is 2.09 µM (inactive); in [2] it was 1.65 µM (inactive); in test [3], 2.22 µM (inactive); in [4], 1.79 µM (inactive); in [5], 2.45 µM (inactive); in test [6], 22.8 µM (inactive). The GI50 in test [7] is 2.6 µM (inactive); in test [8] it was 2.27 µM (inactive); in test [9] it was 1.41 µM (inactive); in test [10] it was 2.59 µM (inactive); in test [11], 18.7 µM (inactive); in test [12], 1.13 µM (inactive). Also, the GI50 was 12.3 µM (inactive) in test [13]; 5.62 µM (inactive) in test [14]; 2.74 µM (inactive) in test [15]; 12.5 µM (inactive) in test [16]; 22.1 µM (inactive) in [17]; 6.17 µM (inactive) in test [18]. The GI50 in [19] is 0.188 µM (active); in [20] it was 1.84 µM (inactive).
Take `C[C@@H]1C[C@@H]2OC(=O)[C@]3(C)[C@H]2[C@@H](OC3(C)O)[C@]2(C)C(=O)C=C[C@@H]12` (stereo not given in full) [TENULIN]: the GI50 was 32.1 µM (inactive) in [1]; 31.3 µM (inactive) in test [2]; 16.4 µM (inactive) in test [3]; 22.1 µM (inactive) in [4]; 20.6 µM (inactive) in test [5]; 19.9 µM (inactive) in test [6]. The GI50 in test [7] was > 100 µM (inactive); in test [8], 41.4 µM (inactive); in test [9] it was 15.2 µM (inactive); in [11], 19 µM (inactive); in test [12], 31.1 µM (inactive); in test [13], 16.8 µM (inactive). The GI50 in [14] was 17.2 µM (inactive); in test [15], 15.7 µM (inactive); in [16] it was 20.6 µM (inactive); in [17] it was 17.5 µM (inactive); in test [18], 40.8 µM (inactive); in test [19], 0.0543 µM (active). Also, in test [20], the GI50 was > 10 µM (inactive).
